Data published in patent US20230321187A1, “OCTOPUS-DERIVED PEPTIDE OCTOPROMYCIN HAVING ANTIBACTERIAL AND ANTI-BIOFILM ACTIVITY AGAINST ACINETOBACTER BAUMANNII” (priority 2020, published 2023).
“Also recorded” adds a separate entry of the source. Where no end group is shown, it is not given here.

How the values were obtained:
[1] = system: A. baumannii; assay: Time-kill kinetics (OD 595 nm); type: cell-based, Acinetobacter baumannii
Description: (§1) The MIC and MBC levels of octopromycin in A. baumannii were determined using media dilution tests and subcultures, respectively, according to the guidelines of the Clinical and Laboratory Standards Institute (CLSI, 2008 M27-A3). Several concentrations of octopromycin (0, 5, 10, 25, 50, 100, and 200 μg/mL) were tested as standard antibiotics (positive control) together with chloramphenicol (10 μg/mL, Sigma-Aldrich, USA) acting on A. baumannii growth and the MBC of chloramphenicol was confirmed according to the same procedure. The MIC was determined as the minimum concentration required to inhibit visual growth of A. baumannii. […] For analysis of time-kill kinetics, A. baumannii was cultured with octopromycin at various concentrations (0, 25, 50, 100, and 200 μg/mL) in the TSA medium at 25° C., and at different time intervals (0, 3, 6, 9, 12, 18, and 21 h), the absorbance was measured at 595 nm using a microplate reader (Bio-Rad, Saint Louis, USA) to confirm an inhibitory effect after culturing.

[2] = system: zebrafish embryos; assay: Zebrafish embryo toxicity (mortality and teratogenicity); type: in vivo
Description: Wild-type (AB) adult zebrafish was maintained in an automated water circulation system at 28° C. under a photoperiod of 14 h (light): 10 h (dark). After zebrafish (to 4 months of age) was mated, embryos were collected at a 1 hours post fertilization (1 hpf) stage and rinsed with embryo water. First, the viability of newly fertilized embryos was identified under a stereoscopic microscope (Nikon, SMZ1000, Japan) before use in experiments. To determine toxicity levels at 24, 48, 72, and 96 hours after exposure, embryos at stages 1-2 hpf were exposed to various concentrations of octopromycin (0 to 8 μg/mL) for 96 hours.
In addition, to evaluate in vivo toxicity, the cumulative mortality of developing zebrafish embryos for 96 hours was calculated at octopromycin exposure (0, 0.25, 0.50, 1.00, 2.00, 4.00, and 8.00 μg/mL). […] However, concentration-dependent mortality patterns occurred by an increase in octopromycin concentration.

[3] = system: A. baumannii; assay: A. baumannii-infected zebrafish model (viability, CFU, clinical signs); type: in vivo
Description: The effect of octopromycin as an antibacterial agent was confirmed using zebrafish as an animal model.
A total of 72 zebrafish (average weight: 0.35±0.05 g) were divided into 3 groups: (1) non-infected control group treated with PBS and water, (2) A. baumannii-infected group, and (3) A. baumannii-infected and octopromycin-treated group (octopromycin-treated group).
Zebrafish was anesthetized using system water containing 160 μg/mL of tricaine (ethyl 3-aminobenzoate methane sulfonate). The control group ((1) group) was injected with 10 μL of nucleous free water (NFW) and 20 μL of PBS using a Hamilton® syringe. The A. baumannii-infected group ((2) group) was injected intraperitoneally with 10 μL of NFW, and the octopromycin-treated group ((3) group) was injected intraperitoneally with 10 μL of octopromycin (10 μg/fish). Then, A. baumannii was injected intraperitoneally (0 hpi) in the A. baumannii-infected group and the octopromycin-treated group at a dose of 20 μ1 (3.4×10^11 CFU) per fish, and then injected every 2 hpi until 48 hpi. To confirm the antibacterial effect of octopromycin, fish mortality was recorded every 12 hpi and the viability of each group was examined.
In addition, the number of bacteria (CFU) in the kidneys and spleens of the control group and the infected zebrafish was observed. 3 fish from each group at the 80% mortality stage of the A. baumannii-infected group was selected, and then the spleen and the kidney were collected, and individual spleen and kidney tissues from each zebrafish were homogenized in PBS and the homogenates were serially diluted and loaded onto an agar plate (TSA) to measure A. baumannii CFU.

[4] = system: A. baumannii; assay: Propidium iodide (PI) uptake / FDA staining membrane permeability assay (CLSM); type: cell-based, Acinetobacter baumannii
Description: Propidium iodide (PI) uptake assay was performed to evaluate an effect of octopromycin on association with the membrane permeability and apoptosis of A. baumannii. The PI was a red fluorescent nuclear and chromosome counter dye that indicated changes in cell membrane permeability, and was used to detect the presence of dead cells and simultaneously observe live cells by observing green fluorescence (FDA). A. baumannii treated with octopromycin at MIC; 50 μg/mL and MBC; 200 μg/mL levels and control cell suspensions were centrifuged (5000 rpm for 2 minutes), washed with PBS and the pellets were suspended in PBS. Subsequently, the cells were cultured with 20 μg/mL of PI (Sigma Aldrich, USA) and 8 μg/mL of FDA (Sigma Aldrich, USA) at 25° C. for 30 minutes in the dark, and finally, the remaining dye was washed with PBS. Finally, a 5 μL drop of each suspension was placed on a cover slip and fluorescence images were observed using a CLSM integrated with a scan head on an Axiovert 200M inverted microscope (Carl Zeiss, Germany).

[5] = system: A. baumannii; assay: Histological analysis of A. baumannii-infected zebrafish (H&E); type: in vivo; details: 48 hpe, vs A. baumannii-infected group
Text: Two zebrafish were selected from each group at the 80% death stage (48 hpe) and the spleen, gills and kidneys were collected separately. Structural changes in A. baumannii-infected zebrafish treated with octopromycin were confirmed by histological analysis. Briefly, two fish from each group (control group, A. baumannii-infected group and octopromycin-treated group) were anesthetized with excess tricaine and the spleen, gills, and kidneys were surgically removed. Each tissue was immersed in PBS and fixed in 10% neutral buffered formalin. After a 12-hour washing step, tissues were dehydrated using a graded series of alcohols in a semi-closed benchtop tissue processor (Leica® TP1020, Germany). The dehydrated tissues were paraffin-embedded (Leica®EG1150 Tissue Embedding Center, Germany), sectioned at […] (Leica®RM2125 microtome, Germany), and stained with Hematoxylin and Eosin (H & E) (Sigma, Aldrich). The stained tissues of each group were imaged using a digital camera (LEICA®DCF450-C, Germany) connected to a microscope (LEICA®DM 3000 LED).

[6] = system: A. baumannii; assay: MIC and MBC by media dilution test and subculture (CLSI); type: cell-based, Acinetobacter baumannii
Description: In Example 2, in order to confirm the antibacterial effect of octopromycin on A. baumannii bacteria having multi-drug resistance, a minimum inhibitory concentration (MIC) and a minimum bactericidal concentration (MBC) of octopromycin were confirmed.
as §1

Sequence: RRLIRTDTGPIIYDYFKDQLLKKGMVILRESMKNLKGM [octopromycin]
- growth inhibition (time-kill kinetics) ([1]; 25 μg/mL, up to 12 hours): partial growth inhibition
- growth inhibition (time-kill kinetics) ([1]; at a MIC concentration or less, 25° C., OD 595 nm): clear growth inhibition
- embryo mortality ([2]; 0.25 μg/mL, 96 hours exposure): no embryo mortality
- toxicity to zebrafish embryos ([2]; 4 μg/mL): not toxic
- embryo mortality ([2]; 8.0 μg/mL, 24 hpe): 100%
- maximum non-lethal concentration ([2]; zebrafish embryos, no abnormal appearance): 4 µg/mL
- viability of infected zebrafish ([3]; 10 μg/fish intraperitoneally, 48 hours after A. baumannii infection): 37.5%
- number of bacteria (CFU) in spleen and kidney ([3]; 10 μg/fish, rank among the three groups): second highest
- external clinical signs (hemorrhage) ([3]; 10 μg/fish, vs A. baumannii-infected group): less hemorrhage
- membrane permeability (PI/FDA staining) ([4]; MBC (200 μg/mL)): almost all A. baumannii cells showed red fluorescence signals
- membrane permeability (PI/FDA staining) ([4]; MIC (50 μg/mL)): more PI-stained red fluorescent cells
- histology of kidney, spleen and gills [5]: tissue disorders and pathological damage were reduced overall; also recorded: tissue disorders and pathological damage were reduced in all tissues
- minimum bactericidal concentration (MBC) ([6]; subculture on TSA, 24 hours): 200 µg/mL
- minimum inhibitory concentration (MIC) ([6]; visual growth): 50 µg/mL
